In patent publication US8124840B2, “Regulating metabolism by modifying the level of trehalose-6-phosphate” (Syngenta Mogen B.V., priority 1996, dated 2012):

Key:
potato microtubers = assay: Trehalose accumulation in potato microtubers induced on medium with Validamycin A; type: in vivo, Solanum tuberosum cv. Kardal; conditions: for Trehalose (% fresh weight): +Validamycin A 10^−3 M
Protocol: Stem segments of in vitro potato plants harbouring an auxiliary meristem were transferred to micro-tuber inducing medium. Micro-tuber inducing medium contains 1 X MS-salts supplemented with R3 vitamins, 0.5 g/l MES (final pH=5.8, adjusted with KOH) and solidified with 8 g/l Daichin agar, 60 g/l sucrose and 2.5 mg/l kinetin. After 3 to 5 weeks of growth in the dark at 24° C., micro-tubers were formed.
(§1) Validamycin A was isolated from Solacol, a commercial agricultural formulation (Takeda Chem. Indust., Tokyo) as described by Kendall et al. (1990) Phytochemistry 29, 2525. The procedure involves ion-exchange chromatography (QAE-Sephadex A-25 (Pharmacia), bed vol. 10 ml, equilibration buffer 0.2 mM Na-Pi pH 7) from a 3% agricultural formulation of Solacol. Loading 1 ml of Solacol on the column and eluting with water in 7 fractions, practically all Validamycin was recovered in fraction 4. Based on a 100% recovery, using this procedure, the concentration of Validamycin A was adjusted to 1.10^−3 M in MS-medium, for use in trehalose accumulation tests. Alternatively, Validamycin A and B may be purified directly from Streptomyces hygroscopicus var. limoneus, as described by Iwasa et al. (1971) J. Antibiot. 24, 119, the content of which is incorporated herein by reference.
Carbohydrates were determined quantitatively by anion exchange chromatography with pulsed electrochemical detection. Extracts were prepared by extracting homogenized frozen material with 80% EtOH. After extraction for 15 minutes at room temperature, the soluble fraction is evaporated and dissolved in distilled water. Samples (25 μl) were analyzed on a Dionex DX-300 liquid chromatograph equipped with a 4×250 mm Dionex 35391 carbopac PA-1 column and a 4×50 mm Dionex 43096 carbopac PA-1 precolumn. Elution was with 100 mM NaOH at 1 ml/min followed by a NaAc gradient. Sugars were detected with a pulsed electrochemical detector (Dionex, PED). Commercially available carbohydrates (Sigma) were used as a standard.
Potato Solanum tuberosum cv. […] The presence of small amounts of trehalose in wild-type plants indicates the presence of a functional trehalose biosynthetic pathway.
Evidence for the presence of a trehalose biosynthesis pathway in tobacco was obtained by culturing wild-type plants in the presence of 10^−3M of the trehalase inhibitor Validamycin A. The treated plants accumulated very small amounts of trehalose, up to 0.0021% (fw). Trehalose accumulation was never detected in any control plants cultured without inhibitor. Similar data were obtained with wild-type microtubers cultured in the presence of Validamycin A. Ten out of seventeen lines accumulated on average 0.001% trehalose (fw)/(Table 4).

α- or β-glycohydrolase = conditions: except for trehalase; cited from earlier work
[1] = system: trehalases from various sources; conditions: cited from earlier work
wild-type tobacco plants = assay: Trehalose accumulation in wild-type tobacco plants cultured with Validamycin A; type: in vivo; conditions: wild-type tobacco plants cultured with 10^−3M Validamycin A
Protocol: as §1, with “1.10^-3” for “1.10^−3”, “reference. Carbohydrates were determined quantitatively by anion exchange chromatography with pulsed electrochemical detection. […] Samples (25 μl) were analyzed on a Dionex DX-300 liquid chromatograph equipped with a 4×250 mm Dionex 35391 carbopac PA-1 column and a 4×50 mm Dionex 43096 carbopac PA-1 precolumn. […] Sugars were detected with a pulsed electrochemical detector (Dionex, PED). […] Trehalose accumulation was never detected in any control plants cultured without inhibitor. […]” for “reference.”

hexokinase = assay: Hexokinase assay on mouse hybridoma cell extract with/without trehalose-6-phosphate; type: biochemical; conditions: for V2 (ODU/min): hexokinase rate with T6P
Protocol: Hexokinase activity was measured in an assay containing 0.1 M Hepes-KOH pH 7.0, 4 mM MgCl2, 5 mM ATP, 0.2 mM NADP^+, 10 U/ml Creatine Phosphate Kinase (dissolved in 50% glycerol, 0.1% BSA, 50 mM Hepes pH 7.0), 3.5 mM Creatine Phosphate, 7 U/ml Glucose-6-Phosphate Dehydrogenase and 2 mM Glucose by measuring the increase in OD at 340 nm at 25° C.
When 2 mM Fructose was used instead of glucose as substrate for the hexokinase reaction, 3.8 U/ml Phosphoglucose Isomerase was included. Alternatively, a hexokinase assay as described by Gancedo et al. (1977) J. Biol. Chem. 252, 4443 was used.
A hexokinase assay was performed using glucose or fructose as substrate under conditions as described by Gancedo et al. (see above). Mouse hybridoma cells were subjected to osmotic shock by exposing a cell pellet to 20% sucrose, followed by distilled water. This crude protein extract was used in the hexokinase assay (50 μl) extract corresponding to ca. 200 μg protein).

[2] = substrate Fructose 20 mM, T6P 0.23
[3] = substrate Fructose 20 mM, T6P 0.43
[4] = substrate Fructose 20 mM, T6P 0.83
[5] = substrate Fructose 20 mM, T6P 1.67
[6] = substrate Glucose 2 mM, T6P 0.83
[7] = substrate Glucose 20 mM, T6P 0.83
[8] = substrate Glucose 100 mM, T6P 0.83

**Q.** For `OCC1=C[C@@H](N[C@H]2C[C@H](CO)[C@@H](O[C@H]3O[C@@H](CO)[C@H](O)[C@@H](O)[C@@H]3O)[C@H](O)[C@H]2O)[C@H](O)[C@@H](O)[C@@H]1O` [Validamycin A], which “Trehalose (% fresh weight)” value (potato microtubers; microtubers of pMOG845 line 845-2) is on record?
**A.** 0.016 % fresh weight

**Q.** What about the “Trehalose (% fresh weight)” value (potato microtubers; microtubers of pMOG845 line 845-8) of the same compound?
**A.** 0.051 % fresh weight

**Q.** What about the “Trehalose (% fresh weight)” value (potato microtubers; microtubers of pMOG845 line 845-11) of the same compound?
**A.** 0.015 % fresh weight

**Q.** And the “Trehalose (% fresh weight)” value (potato microtubers; microtubers of pMOG845 line 845-13)?
**A.** 0.011 % fresh weight

**Q.** What about the “Trehalose (% fresh weight)” value (potato microtubers; microtubers of pMOG845 line 845-22) of the same compound?
**A.** 0.112 % fresh weight

**Q.** What about the “Trehalose (% fresh weight)” value (potato microtubers; microtubers of pMOG845 line 845-25) of the same compound?
**A.** 0.002 % fresh weight

**Q.** What about the “Trehalose (% fresh weight)” value (potato microtubers; microtubers of pMOG845 line 845-28) of the same compound?
**A.** 0.109 % fresh weight

**Q.** And the “Trehalose (% fresh weight)” value (potato microtubers; microtubers of wild type Kardal)?
**A.** 0.001 % fresh weight

**Q.** And the “Trehalose level in microtubers versus medium without Validamycin A” value (potato microtubers; transgenic (pMOG845) and wild-type microtubers, 10^−3 M Validamycin A)?
**A.** elevated levels of trehalose

**Q.** What about the “Trehalose accumulation, average” value (potato microtubers; wild-type microtubers cultured with Validamycin A, ten out of seventeen lines) of the same compound?
**A.** 0.001 % trehalose (fw)

**Q.** What about the “Inhibition of α- or β-glycohydrolase activity” value (α- or β-glycohydrolase) of the same compound?
**A.** does not significantly inhibit

**Q.** What about the IC50 [1] of the same compound?
**A.** 0.1 to 1000 nM

**Q.** What about the Trehalose accumulation (wild-type tobacco plants) of the same compound?
**A.** up to 0.0021 % (fw)

**Q.** For `O=P(O)(O)OC[C@H]1O[C@H](O[C@H]2O[C@H](CO)[C@@H](O)[C@H](O)[C@H]2O)[C@H](O)[C@@H](O)[C@@H]1O` [T-6-P, trehalose-6-phosphate], which “Hexokinase activity in mouse cell extracts” value (hexokinase; crude extract of mouse hybridoma cells) is on record?
**A.** is inhibited

**Q.** And the “V2 (ODU/min)” value (hexokinase; [2])?
**A.** 0.0205 ODU/min

**Q.** And the “V2 (ODU/min)” value (hexokinase; [3])?
**A.** 0.0197 ODU/min

**Q.** What about the “V2 (ODU/min)” value (hexokinase; [4]) of the same compound?
**A.** 0.0151 ODU/min

**Q.** What about the “V2 (ODU/min)” value (hexokinase; [5]) of the same compound?
**A.** 0.0133 ODU/min

**Q.** What about the “V2 (ODU/min)” value (hexokinase; [6]) of the same compound?
**A.** 0.0133 ODU/min

**Q.** What about the “V2 (ODU/min)” value (hexokinase; [7]) of the same compound?
**A.** 0.0141 ODU/min

**Q.** What about the “V2 (ODU/min)” value (hexokinase; [8]) of the same compound?
**A.** 0.0125 ODU/min

**Q.** And the “Efficiency of hexokinase inhibition, glucose versus fructose as substrate” value (hexokinase; mouse cell extracts)?
**A.** No difference

**Q.** And the “Inhibition (%)” value (hexokinase; [2])?
**A.** 1%

**Q.** What about the “Inhibition (%)” value (hexokinase; [3]) of the same compound?
**A.** 26%

**Q.** And the “Inhibition (%)” value (hexokinase; [4])?
**A.** 35%

**Q.** What about the “Inhibition (%)” value (hexokinase; [5]) of the same compound?
**A.** 46%

**Q.** And the “Inhibition (%)” value (hexokinase; [6])?
**A.** 35%

**Q.** What about the “Inhibition (%)” value (hexokinase; [7]) of the same compound?
**A.** 35%

**Q.** And the “Inhibition (%)” value (hexokinase; [8])?
**A.** 34%
